The subject of series [1] is NO production induced by IFN-γ in mouse macrophages. The experiment in a line: iNOS assay: inhibition of NO production induced by IFN-γ in mouse macrophages. Format: cell-based. Conditions: for IC50: Macrophage.
For series [2], the system named is several cancer cell lines. The experiment in a line: Inhibitory activity against several cancer cell lines (data not shown). It counts as cell-based.
Series [3] deals with MCF-7 breast cancer cells (ER-positive). The experiment in a line: Inhibition of estrogen-stimulated growth of MCF-7 breast cancer cells. Format: cell-based, human.
Series [4] deals with activation of macrophages in CD-1 mice. Format: in vivo.
Series [5] deals with NRP-152 prostate epithelial cells. The experiment in a line: Inhibition of proliferation of NRP-152 prostate epithelial cells. It counts as cell-based. Conditions: Rattus norvegicus, Epithelial cell, read-out: IC50 level, inhibition of proliferation.
The subject of series [6] is iNOS mRNA in RAW 264.7 cells. Put plainly: Suppression of iNOS mRNA formation in RAW 264.7 cells. Format: cell-based. The procedure:
(§1) Standard methodology already in place in the inventors laboratory (Suh et al., 1998, 1999, incorporated herein by reference) can be used to evaluate the biological activity of newly synthesized TBEs using suppression of de novo synthesis of iNOS and COX-2 as endpoints. Briefly, primary mouse macrophages or RAW264.7 cells can be cultured under standard conditions and stimulated with either interferon-γ or lipopolysaccharide (LPS). TBEs are added to cell cultures at the same time as inducers. Nitric oxide production in cell culture supernatants can be measured as nitrite accumulation by the Griess reaction. Analysis of levels of iNOS protein in lysates of primary macrophages or RAW cells can be done by Western blot analysis, while levels of iNOS mRNA can be done by routine Northern blot analysis. Prostaglandin E2 production is measured with a commercially available ELISA assay kit, and […] protein and mRNA levels can measured by routine Western and Northern blot analysis, respectively. All these methods are well known in the art.

Series [7] relates to COX-2 mRNA in RAW 264.7 cells. The experiment in a line: Suppression of COX-2 mRNA formation in RAW 264.7 cells. It counts as cell-based. The procedure:
as §1

The mark [8] stands for this setting: blocking of induction of iNOS by IFN-γ, NO production in mouse macrophages, read-out: Activity IC50.

Experimental findings from patent US7176237B2, “Tricyclic-bis-enone derivatives and methods of use thereof” (The Trustees of Dartmouth College, priority 2002, dated 2007) are described below.

Structures are written as SMILES. Read-outs that look alike come from different tables or passages of the source.

`CC(=O)O[C@@H]1CCC=C2[C@@]3(C)C=C(C#N)C(=O)C(C)(C)[C@@H]3CC[C@]21C` (racemic) [(±)-TBE-2]: the IC50 in series [1] (setting [8]) stood at 480 nM.

For `CC1(C)C(=O)C(C#N)=C[C@@]2(C)C3=CC(=O)C=C[C@@]3(C)CC[C@H]12` [(+)-TBE-5], the IC50 in series [1] (setting [8]) was determined as 64 nM. Further, the “potency in iNOS assay, statement in words” value (“potency in iNOS assay” for short) in series [1] (iNOS assay) is listed as “same potency”. Further, the “inhibitory activity against several cancer cell lines, enantiomers compared” value in series [2] was “same inhibitory activity”.

For the compound `CC1(C)C(=O)C(C#N)=C[C@]2(C)C3=CC(=O)C(C#N)=C[C@]3(C)CC[C@@H]12` (racemic) [(±)-TBE-9], the “times more potent than TBE-5” value in series [1] is given as around 30 times. In addition, in series [1] (setting [8]), the IC50 is 2.1 nM. The IC50 in series [1] (Mus musculus, iNOS assay, order-of-magnitude level, read-out: IC50 level stated in text) is around 1 nM. In series [1] (iNOS assay), the “potency in iNOS assay” value is on record as “highest potency” and the “times more potent than hydrocortisone” value is “about 5 times”. In addition, the “potency, times more than TBE-5” value in series [3] is “about 30 times”. In addition, the “concentration range of dose-dependent inhibition of estrogen-stimulated growth” value in series [3] (MCF-7 (ER-positive)) lay in the range of 10 to 1000 nM. For the same compound, in series [4] (15 and 30 mg/kg oral, mouse), the signs of toxicity entry is listed as “no signs of toxicity”. In addition, in series [4] (15 and 30 mg/kg, administered once, oral, mouse), the “oral activity in vivo” value is recorded as “orally active”. Besides, the “activation of macrophages in mice” value in series [4] (CD-1 mice) is on record as “blocks the activation of macrophages”. Moreover, in series [4] (mouse peritoneal inflammation), the “in vivo potency compared with hydrocortisone” value is on record as “much more potent than hydrocortisone”.

With `CC1(C)CC[C@]2(C(=O)O)CC[C@]3(C)C(=CC[C@@H]4[C@@]5(C)CC[C@H](O)C(C)(C)[C@@H]5CC[C@]43C)[C@@H]2C1` [Oleanolic acid, reference compound], in series [1] (setting [8]), the IC50 is above 40000 nM.

Consider `CC1(C)C(=O)C(C#N)=C[C@]2(C)C3=CC(=O)C=C[C@]3(C)CC[C@@H]12` (racemic) [(±)-TBE-5], for which the IC50 in series [1] (NO production induced by IFN-γ in mouse macrophages, order-of-magnitude level, read-out: IC50 level stated in text) was around 10 nM; in series [1] (setting [8]), 61 nM; in series [5], around 100 nM.

`CC1(C)C(=O)C(C#N)=C[C@]2(C)C3=CCC[C@@H](O)[C@]3(C)CC[C@@H]12` (racemic) [(±)-TBE-1]: the IC50 in series [1] (setting [8]) came to 310 nM.

As for `CC(=O)O[C@@H]1CC(=O)C=C2[C@@]3(C)C=C(C#N)C(=O)C(C)(C)[C@@H]3CC[C@]21C` (racemic) [(±)-TBE-3], the results for the IC50 in series [1] (setting [8]) and in series [5] were 53 nM and around 100 nM, respectively. Also, the “potency, times less than CDDO (iNOS mRNA)” value in series [6] (RAW cells) is “about 10 times”. Moreover, in series [6] (at 1 μM in RAW cells), the “formation of iNOS mRNA” value was “suppresses”. The “potency, times less than CDDO (COX-2 mRNA)” value in series [7] (RAW cells) was “about 10 times”. In addition, the “formation of COX-2 mRNA” value in series [7] (at 1 μM in RAW cells) is given as “suppresses”.

As to `CC1(C)C(=O)C(C#N)=C[C@]2(C)C3=CC(=O)C[C@@H](O)[C@]3(C)CC[C@@H]12` (racemic) [(±)-TBE-4], the IC50 in series [1] (setting [8]) was found to be 75 nM.

For the compound `COC(=O)C1=C[C@]2(C)CC[C@H]3C(C)(C)C(=O)C(C#N)=C[C@]3(C)C2=CC1=O` (racemic) [(±)-TBE-6], the IC50 in series [1] (setting [8]) came out at 91 nM.

Consider `CC1(C)C(=O)C(C#N)=C[C@]2(C)C3=CC(=O)C(C(=O)O)=C[C@]3(C)CC[C@@H]12` (racemic) [(±)-TBE-7], for which, in series [1] (setting [8]), the IC50 is 1600 nM.

With `CC1(C)C(=O)C(C#N)=C[C@]2(C)C3=CC(=O)CC[C@]3(C)CC[C@@H]12` (racemic) [(±)-TBE-10], in series [1], the “times more potent than TBE-5” value is “about 3 times”. Besides, the IC50 in series [1] (setting [8]) was 19 nM.

As to `CC1(C)C(=O)C(C#N)=C[C@]2(C)C3=CC(=O)C(C(N)=O)=C[C@]3(C)CC[C@@H]12` (racemic) [(±)-TBE-8], in series [1] (setting [8]), the IC50 stood at 61 nM.

In the case of `CC1(C)C(=O)C(C#N)=C[C@]2(C)C3=CC(=O)C=C[C@]3(C)CC[C@@H]12` [(−)-TBE-5], the IC50 in series [1] (setting [8]) turned out to be 58 nM. Also, the “potency in iNOS assay” value in series [1] (iNOS assay) was “same potency”. Further, the “inhibitory activity against several cancer cell lines, enantiomers compared” value in series [2] was “same inhibitory activity”.

Consider `C[C@]12CCC(=O)C=C1CC[C@@H]1[C@@H]2[C@@H](O)C[C@@]2(C)[C@H]1CC[C@]2(O)C(=O)CO` [Hydrocortisone, reference compound], for which, in series [1] (setting [8]), the IC50 worked out at 10 nM.
